Consider three molecules from patent publication US12686657B2, “Anti-inflammatory carboxamide derivatives” (BIOMEDCODE HELLAS SA, priority 2021, dated 2026).

Where two headings read alike, the source gives them in different places.

What all share (type): cell-based, mice
For one data set, the system named is SFs and PMCs. Put plainly: Compound cytotoxicity, Crystal Violet assay. The procedure:
The toxicity of the test compounds was assessed at several concentrations using the Crystal Violet assay on both SFs and PMCs. Adherent viable cells were Methanol fixed and stained with Crystal Violet. Optical density was quantified at […], as described in Feoktistova et al., 2016.

The next data set has as its system hTNFtg SFs. Put plainly: CCL5 and CCL20 ELISA on hTNFtg synovial fibroblasts. As to conditions: Mus musculus, Fibroblast; for activity at 10 µM: compound 10 μM; for activity at 10 µM / activity at 25 µM / activity at 50 µM: 48 h; for activity at 25 µM: compound 25 μM; for activity at 50 µM: compound 50 μM. The method, then: (§1) Primary SFs were derived from a) human TNF transgenic (hTNFTg) mice (Keffer et al., 1991) as well as from b) CBA/C57BL6 wild type mice.
hTNFtg mice overexpress human TNF, resulting in the spontaneous development of arthritis.
(§2) SFs were isolated as previously described by Armaka et al., 2009, from the ankle joints of hTNFtg or CBA/C57BL6 wild type (wt) littermates. Briefly, ankle joints were digested with Collagenase IV (Sigma Aldrich, C5138) for 45 minutes at a 37° C. shaking waterbath and after 5 days in culture at 37° C. and 5% CO2, a depletion of CD45+ lineage cells was performed using a Biotin anti-mouse CD45 Antibody (Biolegend, 103104) and Dynabeads™ Biotin Binder (ThermoFisher 11047), according to the manufacturer's protocol. After 10 days in culture, SFs were seeded overnight (O/N) at a concentration of 2×10^4 cells/well in a 96 well plate in 1×DMEM, supplemented with 100 U/ml Penicillin Streptomycin (P/S) and 10% Fetal Bovine Serum (FBS). The next day the cells were synchronized by starvation that included their O/N plating in low serum medium (0.5% FBS). Following the O/N starvation, the hTNFg and the WT SFs were treated with different concentrations of the experimental compounds. The SFs were at the same time activated with 10 ng/ml hTNF (Peprotech, 300-01A). 48 h following the treatment the cell culture supernatants were collected and analyzed by ELISA (R&S Systems, Duoset, DY478 and DY760) according to the manufacturer's protocol, for the detection of CCL5/Rantes and CCL20/Mip3, two known inflammatory chemokines. The IC50 values were determined as the concentration of the compounds required to reduce the levels of secreted CCL5 and CCL20 by 50%.
(§3) Table 7 summarizes the reduction of CCL5 and CCL20 levels achieved with the test compounds of the invention. Data are presented as percentages of the chemokine levels detected in treated cells compared to 100% levels of the chemokines detected in the untreated cells.
(§4) Table 8 summarizes the values of IC50 and toxicity for the test compounds of the invention. Dose response curves regarding the WT SFs were produced with 10 ng/ml hTNF stimulation for all compounds, with the exception of the compounds E and F, where WT cells were induced using hTNF at 1 ng/ml: […]
In general terms: In an ELISA, binding on a coated surface is turned into a signal by an enzyme label.

In another data set the test system is hTNF-activated wt SFs. Put plainly: CCL5 and CCL20 ELISA on hTNF-activated wild type synovial fibroblasts. As to conditions: for activity at 10 µM / activity at 25 µM / IC50 / activity at 50 µM: Mus musculus, Fibroblast; for activity at 10 µM / activity at 25 µM / activity at 50 µM / CCL5 WT, percentage of level in untreated cells / CCL20 WT, percentage of level in untreated cells: 48 h; for IC50: 10 ng/ml hTNF stimulation; for activity at 50 µM: compound 50 μM.
From the text: as §1
By testing the compounds in a) and b) we accessed their effect on the activated SFs phenotype caused by both the endogenous hTNF upregulation and the exogenous hTNF administration. In this way it was confirm the ability of the compounds of the invention to act in the TNF pathway directly downstream of TNF.
as §2
In order to determine the efficiency of the compounds of the invention, the same protocol was repeated with some minor modifications. Mainly, the concentration of hTNF was 10-fold reduced, i.e., adjusted to 1 ng/ml, and the SFs were seeded overnight at a concentration of 10^4 cells/well.
as §3, §4

Setting [1] is: read-out: CCL5 hTNFtg, percentage of level in untreated cells.
Setting [2] is: read-out: CCL20 hTNFtg, percentage of level in untreated cells.
The mark [3] stands for this setting: read-out: IC50 (μM) CCL5 hTNFtg.
[4] abbreviates: read-out: IC50 (μM) CCL20 hTNFtg.
The mark [5] stands for this setting: 10 ng/mL hTNF, compound 10 μM, read-out: CCL5 WT, percentage of level in untreated cells.
Where [6] appears, read: 10 ng/mL hTNF, compound 10 μM, read-out: CCL20 WT, percentage of level in untreated cells.

A word on the IC50: it is the point on the concentration scale where inhibition reaches its midpoint.

As for `COc1cc(N)c(Cl)cc1C(=O)NCC1(c2ccc(F)cc2)CCCCCC1` [Compound 57, 4-amino-5-chloro-N-((1-(4-fluorophenyl)cycloheptyl)methyl)-2-methoxybenzamide], the “Cell Toxicity” value in the data set with SFs and PMCs is above 25 µM. Besides, the activity at 10 µM in the data set on hTNFtg SFs (setting [1]) amounted to 40%; in the data set with hTNFtg SFs (setting [2]), 27%; with hTNF-activated wt SFs (setting [5]) it was 49%; in the data set with hTNF-activated wt SFs (setting [6]), 13%. For the same molecule, the activity at 25 µM stood at 40% in the data set with hTNFtg SFs (setting [1]); 25% with hTNFtg SFs (setting [2]); 14% with hTNF-activated wt SFs (10 ng/mL hTNF, compound 25 μM, read-out: CCL5 WT, percentage of level in untreated cells); 6% with hTNF-activated wt SFs (10 ng/mL hTNF, compound 25 μM, read-out: CCL20 WT, percentage of level in untreated cells). For the same molecule, the IC50 was found to be 4 µM in the data set on hTNFtg SFs (setting [3]), 2.4 µM in the data set on hTNFtg SFs (setting [4]), 18 µM in the data set with hTNF-activated wt SFs (read-out: IC50 (μM) CCL5 WT) and 3.5 µM in the data set with hTNF-activated wt SFs (read-out: IC50 (μM) CCL20 WT).

`COc1cc(N)c(Cl)cc1C(=O)NCC1(N2CCSCC2)CCCCCC1` [Compound 44, 4-amino-5-chloro-2-methoxy-N-((1-thiomorpholinocycloheptyl)methyl)benzamide]: in the data set on SFs and PMCs, the “Cell Toxicity” value was above 100 µM. Further, the activity at 10 µM in the data set on hTNFtg SFs (setting [1]) is 69%; in the data set with hTNFtg SFs (setting [2]) it was 45%; in the data set on hTNF-activated wt SFs (setting [5]), 30%; in the data set with hTNF-activated wt SFs (setting [6]) it was 75%. The activity at 50 µM in the data set on hTNFtg SFs (setting [1]) amounted to 26%; with hTNFtg SFs (setting [2]) it was 27%; with hTNF-activated wt SFs (10 ng/mL hTNF, read-out: CCL5 WT, percentage of level in untreated cells), 2%; in the data set with hTNF-activated wt SFs (10 ng/mL hTNF, read-out: CCL20 WT, percentage of level in untreated cells) it was 46%. The IC50 in the data set on hTNFtg SFs (setting [3]) is 12.6 µM; with hTNFtg SFs (setting [4]), around 15 µM; in the data set on hTNF-activated wt SFs (read-out: IC50 (μM) CCL5 WT) it was 3.7 µM; in the data set with hTNF-activated wt SFs (read-out: IC50 (μM) CCL20 WT), around 65 µM.

Turning to `COc1cc(N)c(Cl)cc1C(=O)NCC1(c2ccc(F)cc2Cl)CCCCCC1` [Compound 58, 4-amino-5-chloro-N-((1-(2-chloro-4-fluorophenyl)cycloheptyl)methyl)-2-methoxybenzamide], the “Cell Toxicity” value with SFs and PMCs is above 50 µM. For the same molecule, the activity at 10 µM with hTNFtg SFs (setting [1]) was found to be 64%; with hTNFtg SFs (setting [2]), 32.5%; in the data set on hTNF-activated wt SFs (1 ng/mL hTNF, compound 10 μM, read-out: CCL20 WT, percentage of level in untreated cells) it was 15%; in the data set with hTNF-activated wt SFs (setting [6]), 48.5%. Also, the figures for the activity at 25 µM with hTNFtg SFs (setting [1]) and in the data set with hTNFtg SFs (setting [2]) were 53.5% and 22.5%, respectively. Also, the IC50 turned out to be 0.95 µM in the data set with hTNFtg SFs (setting [3]), 0.74 µM with hTNFtg SFs (setting [4]), 2.96 µM with hTNF-activated wt SFs (read-out: IC50 (μM) CCL5 WT) and 2.44 µM with hTNF-activated wt SFs (read-out: IC50 (μM) CCL20 WT). Further, the “CCL5 WT, percentage of level in untreated cells” value is on record as 8% in the data set with hTNF-activated wt SFs (1 ng/mL hTNF, compound 10 μM); 9% with hTNF-activated wt SFs (1 ng/mL hTNF, compound 25 μM); 0% in the data set with hTNF-activated wt SFs (10 ng/mL hTNF, compound 10 μM); 0% in the data set on hTNF-activated wt SFs (10 ng/mL hTNF, compound 25 μM). The “CCL20 WT, percentage of level in untreated cells” value in the data set with hTNF-activated wt SFs (1 ng/mL hTNF, compound 25 μM) worked out at 14%; in the data set on hTNF-activated wt SFs (10 ng/mL hTNF, compound 25 μM) it was 0%.
